# Reference: PubChem BioAssay (NCI)
#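 Briefly, cells in 96-well plates were exposed to five compound concentrations for 48 h, and endpoints were estimated by linear interpolation. Here, GI50 denotes the concentration required for 50% inhibition of growth. The concentration for full growth arrest is given as TGI.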
# Columns and labels:
# Experiment in all cases: growth of human tumour cells (NCI), 48 h
# NCI/ADR-RES ovarian = test system: NCI/ADR-RES ovarian
# HS 578T breast = test system: HS 578T breast
# SK-MEL-5 melanoma = test system: SK-MEL-5 melanoma
# HCT-116 colon = test system: HCT-116 colon
# MOLT-4 leukemia = test system: MOLT-4 leukemia
# ACHN renal = test system: ACHN renal
# RPMI-8226 leukemia = test system: RPMI-8226 leukemia
# CCRF-CEM leukemia = test system: CCRF-CEM leukemia
# SF-268 CNS = test system: SF-268 CNS
# HOP-62 NSCLC = test system: HOP-62 NSCLC
# OVCAR-5 ovarian = test system: OVCAR-5 ovarian
# UACC-257 melanoma = test system: UACC-257 melanoma
# SF-539 CNS = test system: SF-539 CNS
# SNB-75 CNS = test system: SNB-75 CNS
# OVCAR-3 ovarian = test system: OVCAR-3 ovarian
# SK-OV-3 ovarian = test system: SK-OV-3 ovarian
# SR leukemia = test system: SR leukemia
# MDA-MB-468 breast = test system: MDA-MB-468 breast
# HL-60(TB) leukemia = test system: HL-60(TB) leukemia
# SK-MEL-2 melanoma = test system: SK-MEL-2 melanoma
# NCI-H226 lung = test system: NCI-H226 lung
# MDA-MB-435 = test system: MDA-MB-435
# OVCAR-8 ovarian = test system: OVCAR-8 ovarian
# MDA-MB-231 breast = test system: MDA-MB-231 breast
# NCI-H522 lung = test system: NCI-H522 lung
# SW-620 colon = test system: SW-620 colon
# M14 melanoma = test system: M14 melanoma
# PC-3 prostate = test system: PC-3 prostate
# KM12 colon = test system: KM12 colon
# NCI-H460 lung = test system: NCI-H460 lung
# CAKI-1 renal = test system: CAKI-1 renal
# EKVX NSCLC = test system: EKVX NSCLC
# A498 renal = test system: A498 renal
# U251 CNS = test system: U251 CNS
# SF-295 CNS = test system: SF-295 CNS
# RXF 393 renal = test system: RXF 393 renal
# 786-0 renal = test system: 786-0 renal
# SK-MEL-28 melanoma = test system: SK-MEL-28 melanoma
# BT-549 breast = test system: BT-549 breast
# NCI-H23 lung = test system: NCI-H23 lung
# MCF7 breast = test system: MCF7 breast
# HOP-92 NSCLC = test system: HOP-92 NSCLC
# SNB-19 CNS = test system: SNB-19 CNS
# UACC-62 melanoma = test system: UACC-62 melanoma
# DU-145 prostate = test system: DU-145 prostate
# TK-10 renal = test system: TK-10 renal
# HCT-15 colon = test system: HCT-15 colon
# A549 NSCLC = test system: A549 NSCLC
# OVCAR-4 ovarian = test system: OVCAR-4 ovarian
# IGROV1 ovarian = test system: IGROV1 ovarian
# MALME-3M melanoma = test system: MALME-3M melanoma
# T-47D breast = test system: T-47D breast
# LOX IMVI melanoma = test system: LOX IMVI melanoma
# HCC-2998 colon = test system: HCC-2998 colon
# HT29 colon = test system: HT29 colon
# UO-31 renal = test system: UO-31 renal
# COLO 205 colon = test system: COLO 205 colon
# SN12C renal = test system: SN12C renal
# K-562 leukemia = test system: K-562 leukemia
structure (smiles),measurement,setting,value
CCOc1ccc(/C=N/NC(=O)Cn2nc(Cc3ccc(OC)cc3)c3onc(C)c3c2=O)cc1,GI50,NCI/ADR-RES ovarian,5.35 µM
same,TGI,NCI/ADR-RES ovarian,19.7 µM
same,GI50,HS 578T breast,4.26 µM
same,TGI,HS 578T breast,29 µM
same,GI50,SK-MEL-5 melanoma,39.7 µM
same,TGI,SK-MEL-5 melanoma,> 100 µM
same,GI50,HCT-116 colon,3.39 µM
same,TGI,HCT-116 colon,11.6 µM
same,GI50,MOLT-4 leukemia,29.8 µM
same,TGI,MOLT-4 leukemia,> 100 µM
same,GI50,ACHN renal,3.33 µM
same,TGI,ACHN renal,11 µM
same,GI50,RPMI-8226 leukemia,78.2 µM
same,TGI,RPMI-8226 leukemia,> 100 µM
same,GI50,CCRF-CEM leukemia,33.4 µM
same,TGI,CCRF-CEM leukemia,> 100 µM
same,GI50,SF-268 CNS,10.5 µM
same,TGI,SF-268 CNS,27.4 µM
same,GI50,HOP-62 NSCLC,4.8 µM
same,TGI,HOP-62 NSCLC,18.1 µM
same,GI50,OVCAR-5 ovarian,14.4 µM
same,TGI,OVCAR-5 ovarian,51.8 µM
same,GI50,UACC-257 melanoma,13.3 µM
same,TGI,UACC-257 melanoma,60.9 µM
same,GI50,SF-539 CNS,7.35 µM
same,TGI,SF-539 CNS,20 µM
same,GI50,SNB-75 CNS,1.64 µM
same,TGI,SNB-75 CNS,3.42 µM
same,GI50,OVCAR-3 ovarian,3.2 µM
same,TGI,OVCAR-3 ovarian,10.4 µM
same,GI50,SK-OV-3 ovarian,4.12 µM
same,TGI,SK-OV-3 ovarian,14.5 µM
same,GI50,SR leukemia,40.3 µM
same,TGI,SR leukemia,> 100 µM
same,GI50,MDA-MB-468 breast,9.93 µM
same,TGI,MDA-MB-468 breast,29.3 µM
same,GI50,HL-60(TB) leukemia,51.1 µM
same,TGI,HL-60(TB) leukemia,> 100 µM
same,GI50,SK-MEL-2 melanoma,18.4 µM
same,TGI,SK-MEL-2 melanoma,41 µM
same,GI50,NCI-H226 lung,3.43 µM
same,TGI,NCI-H226 lung,15.9 µM
same,GI50,MDA-MB-435,25.7 µM
same,TGI,MDA-MB-435,> 100 µM
same,GI50,OVCAR-8 ovarian,11.2 µM
same,TGI,OVCAR-8 ovarian,42.1 µM
same,GI50,MDA-MB-231 breast,9.23 µM
same,TGI,MDA-MB-231 breast,27.9 µM
same,GI50,NCI-H522 lung,14.5 µM
same,TGI,NCI-H522 lung,37.7 µM
same,GI50,SW-620 colon,7.37 µM
same,TGI,SW-620 colon,36.5 µM
same,GI50,M14 melanoma,13.7 µM
same,TGI,M14 melanoma,75.1 µM
same,GI50,PC-3 prostate,12.4 µM
same,TGI,PC-3 prostate,84.8 µM
same,GI50,KM12 colon,41.8 µM
same,TGI,KM12 colon,> 100 µM
same,GI50,NCI-H460 lung,5.32 µM
same,TGI,NCI-H460 lung,19.2 µM
same,GI50,CAKI-1 renal,3.8 µM
same,TGI,CAKI-1 renal,14.8 µM
same,GI50,EKVX NSCLC,10.8 µM
same,TGI,EKVX NSCLC,30.3 µM
same,GI50,A498 renal,3.83 µM
same,TGI,A498 renal,13.7 µM
same,GI50,U251 CNS,3.96 µM
same,TGI,U251 CNS,17.1 µM
same,GI50,SF-295 CNS,6.77 µM
same,TGI,SF-295 CNS,21.8 µM
same,GI50,RXF 393 renal,2.71 µM
same,TGI,RXF 393 renal,6.38 µM
same,GI50,786-0 renal,2.99 µM
same,TGI,786-0 renal,10.4 µM
same,GI50,SK-MEL-28 melanoma,10.4 µM
same,TGI,SK-MEL-28 melanoma,24.8 µM
same,GI50,BT-549 breast,10.3 µM
same,TGI,BT-549 breast,27.1 µM
same,GI50,NCI-H23 lung,10.7 µM
same,TGI,NCI-H23 lung,33.1 µM
same,GI50,MCF7 breast,4.37 µM
same,TGI,MCF7 breast,23.9 µM
same,GI50,HOP-92 NSCLC,3.61 µM
same,TGI,HOP-92 NSCLC,16.5 µM
same,GI50,SNB-19 CNS,12.2 µM
same,TGI,SNB-19 CNS,32.4 µM
same,GI50,UACC-62 melanoma,13.2 µM
same,TGI,UACC-62 melanoma,32.7 µM
same,GI50,DU-145 prostate,9.35 µM
same,TGI,DU-145 prostate,26.9 µM
same,GI50,TK-10 renal,11 µM
same,TGI,TK-10 renal,28.8 µM
same,GI50,HCT-15 colon,15.1 µM
same,TGI,HCT-15 colon,> 100 µM
same,GI50,A549 NSCLC,3.43 µM
same,TGI,A549 NSCLC,13.1 µM
same,GI50,OVCAR-4 ovarian,10.8 µM
same,TGI,OVCAR-4 ovarian,25.3 µM
same,GI50,IGROV1 ovarian,15.3 µM
same,TGI,IGROV1 ovarian,43 µM
same,GI50,MALME-3M melanoma,4.86 µM
same,TGI,MALME-3M melanoma,19.5 µM
same,GI50,T-47D breast,3.46 µM
same,TGI,T-47D breast,22.3 µM
same,GI50,LOX IMVI melanoma,10.9 µM
same,TGI,LOX IMVI melanoma,27.9 µM
same,GI50,HCC-2998 colon,11 µM
same,TGI,HCC-2998 colon,27.4 µM
same,GI50,HT29 colon,12.3 µM
same,TGI,HT29 colon,32.9 µM
same,GI50,UO-31 renal,4.08 µM
same,TGI,UO-31 renal,19.5 µM
same,GI50,COLO 205 colon,40 µM
same,TGI,COLO 205 colon,> 100 µM
same,GI50,SN12C renal,3.42 µM
same,TGI,SN12C renal,13.3 µM
same,GI50,K-562 leukemia,37.6 µM
same,TGI,K-562 leukemia,> 100 µM
